{
  "source": "patent US6770597B2",
  "about": "“Benzohydrazide derivatives as herbicides and desiccant compositions containing them” (Ishihara Sangyo Kaisha, Ltd., priority 2002, dated 2004)",
  "type_in_all_cases": "in vivo",
  "key": {"[1]": {"test_system": "velvetleaf (Abutilon theophrasti, ABUTH)", "experiment": "Greenhouse herbicide screen, pre-emerge application, phytotoxicity rating", "details": "PRE emergent, 63 g ai/ha, 14 days after application, rating scale 0-100", "from_the_text": "(§1) A standard greenhouse herbicide activity screening system was used to evaluate the herbicidal efficacy and crop safety of these test compounds. Seven broadleaf weed species including redroot pigweed (Amaranthus retrofiexus, AMARE), velvetleaf (Abutilon theophrasti, ABUTH), sicklepod (Cassia obtusifolia, CASOB), ivyleaf morningglory (Ipomoea hederacea, IPOHE), lambsquarters (Chenopodium album, CHEAL), common ragweed (Ambrosia artemisiifolia L., AMBEL), and cocklebur (Xanthium strumarium, XANST) were used as test species. Four grass weed species including green foxtail (Setaria viridis, SETVI), barnyardgrass (Echinochloa crus-galli, ECHCG), johnsongrass (Sorghum halepense, SORHA), and large crabgrass (Digitaria sanguinalis, DIGSA) were also used. In addition, four crop species, field corn (Zea mays L., var. Dekalb 535, CORN), soybean (Glycine max L., var. Pella 86, SOY), upland rice (Oryza sp., var.Cocodrie, RICE) and wheat (Triticum aestivum L.) were included.\n(§2) All plants were grown in 10 cm square plastic pots which were filled with a sandy loam soil mix. For pre-emerge tests, seeds were planted one day prior to application of the test compounds. For post-emerge tests, seeds were planted 8-21 days prior to the test to allow emergence and good foliage development prior to application of the test substances. At the time of the post-emerge application, plants of all species were usually at the 2-3 leaf stage of development.\n(§3) All test compounds were dissolved in acetone and applied to the test units in a volume of 187 l/ha. Test materials were applied at rates ranging from 15 g ai/ha to 1000 g ai/ha using a track sprayer equipped with a TJ8001E even flow flat fan spray nozzle. Plants were arranged on a shelf so that the top of the canopy (post-emerge) or top of the soil surface (pre-emerge) was 40-45 cm below the nozzle. Pressurized air was used to force the test solution through the nozzle as it was mechanically advanced (via electrically driven chain drive) over the top of all test plants/pots. This application simulates a typical commercial field herbicide application.\n(§4) Pre-emergence tests were top watered immediately after treatment to incorporate the test materials, then routinely top-watered for normal growth. Post-emerge test units were always bottom-watered.\n(§5) At 14 days after application of the test materials, phytotoxicity ratings were recorded. A rating scale of 0-100 was used as previously described in Research Methods in Weed Science, 2nd edition, B. Truelove, Ed., Southern Weed Science Society, Auburn University, Auburn, Ala., 1977. Briefly, “0” corresponds to no damage and “100” corresponds to complete death of all plants in the test unit. This scale was used both to determine efficacy against weed species and damage to crop species. Herbicide activity data for various compounds of this invention, which are shown by compound No. in Tables 1-12, are shown in Tables 13 and 14."}, "[2]": {"test_system": "barnyardgrass (Echinochloa crus-galli, ECHCG)", "experiment": "Greenhouse herbicide screen, pre-emerge application, phytotoxicity rating", "details": "PRE emergent, 63 g ai/ha, 14 days after application, rating scale 0-100", "from_the_text": "as §1, §2, §3, §4, §5"}, "[3]": {"test_system": "lambsquarters (Chenopodium album, CHEAL)", "experiment": "Greenhouse herbicide screen, pre-emerge application, phytotoxicity rating", "details": "PRE emergent, 63 g ai/ha, 14 days after application, rating scale 0-100", "from_the_text": "as §1, §2, §3, §4, §5"}, "[4]": {"test_system": "redroot pigweed (Amaranthus retrofiexus, AMARE)", "experiment": "Greenhouse herbicide screen, pre-emerge application, phytotoxicity rating", "details": "PRE emergent, 63 g ai/ha, 14 days after application, rating scale 0-100", "from_the_text": "as §1, §2, §3, §4, §5"}, "[5]": {"test_system": "common ragweed (Ambrosia artemisiifolia L., AMBEL)", "experiment": "Greenhouse herbicide screen, pre-emerge application, phytotoxicity rating", "details": "PRE emergent, 63 g ai/ha, 14 days after application, rating scale 0-100", "from_the_text": "as §1, §2, §3, §4, §5"}, "[6]": {"test_system": "ivyleaf morningglory (Ipomoea hederacea, IPOHE)", "experiment": "Greenhouse herbicide screen, pre-emerge application, phytotoxicity rating", "details": "PRE emergent, 63 g ai/ha, 14 days after application, rating scale 0-100", "from_the_text": "as §1, §2, §3, §4, §5"}, "[7]": {"test_system": "green foxtail (Setaria viridis, SETVI)", "experiment": "Greenhouse herbicide screen, pre-emerge application, phytotoxicity rating", "details": "PRE emergent, 63 g ai/ha, 14 days after application, rating scale 0-100", "from_the_text": "as §1, §2, §3, §4, §5"}, "[8]": {"test_system": "johnsongrass (Sorghum halepense, SORHA)", "experiment": "Greenhouse herbicide screen, pre-emerge application, phytotoxicity rating", "details": "PRE emergent, 63 g ai/ha, 14 days after application, rating scale 0-100", "from_the_text": "as §1, §2, §3, §4, §5"}, "[9]": {"test_system": "large crabgrass (Digitaria sanguinalis, DIGSA)", "experiment": "Greenhouse herbicide screen, pre-emerge application, phytotoxicity rating", "details": "PRE emergent, 63 g ai/ha, 14 days after application, rating scale 0-100", "from_the_text": "as §1, §2, §3, §4, §5"}, "[10]": {"test_system": "sicklepod (Cassia obtusifolia, CASOB)", "experiment": "Greenhouse herbicide screen, pre-emerge application, phytotoxicity rating", "details": "PRE emergent, 63 g ai/ha, 14 days after application, rating scale 0-100", "from_the_text": "as §1, §2, §3, §4, §5"}, "[11]": {"test_system": "cocklebur (Xanthium strumarium, XANST)", "experiment": "Greenhouse herbicide screen, pre-emerge application, phytotoxicity rating", "details": "PRE emergent, 63 g ai/ha, 14 days after application, rating scale 0-100", "from_the_text": "as §1, §2, §3, §4, §5"}, "[12]": {"test_system": "velvetleaf (Abutilon theophrasti, ABUTH)", "experiment": "Greenhouse herbicide screen, post-emerge application, phytotoxicity rating", "details": "POST emergent, 63 g ai/ha, 14 days after application, scale 0-100", "from_the_text": "as §1, §2, §3, §4, §5"}, "[13]": {"test_system": "barnyardgrass (Echinochloa crus-galli, ECHCG)", "experiment": "Greenhouse herbicide screen, post-emerge application, phytotoxicity rating", "details": "POST emergent, 63 g ai/ha, 14 days after application, scale 0-100", "from_the_text": "as §1, §2, §3, §4, §5"}, "[14]": {"test_system": "lambsquarters (Chenopodium album, CHEAL)", "experiment": "Greenhouse herbicide screen, post-emerge application, phytotoxicity rating", "details": "POST emergent, 63 g ai/ha, 14 days after application, scale 0-100", "from_the_text": "as §1, §2, §3, §4, §5"}, "[15]": {"test_system": "redroot pigweed (Amaranthus retrofiexus, AMARE)", "experiment": "Greenhouse herbicide screen, post-emerge application, phytotoxicity rating", "details": "POST emergent, 63 g ai/ha, 14 days after application, scale 0-100 (0 no damage, 100 complete death)", "from_the_text": "as §1, §2, §3, §4, §5"}, "[16]": {"test_system": "common ragweed (Ambrosia artemisiifolia L., AMBEL)", "experiment": "Greenhouse herbicide screen, post-emerge application, phytotoxicity rating", "details": "POST emergent, 63 g ai/ha, 14 days after application, scale 0-100", "from_the_text": "as §1, §2, §3, §4, §5"}, "[17]": {"test_system": "ivyleaf morningglory (Ipomoea hederacea, IPOHE)", "experiment": "Greenhouse herbicide screen, post-emerge application, phytotoxicity rating", "details": "POST emergent, 63 g ai/ha, 14 days after application, scale 0-100", "from_the_text": "as §1, §2, §3, §4, §5"}, "[18]": {"test_system": "green foxtail (Setaria viridis, SETVI)", "experiment": "Greenhouse herbicide screen, post-emerge application, phytotoxicity rating", "details": "POST emergent, 63 g ai/ha, 14 days after application, scale 0-100", "from_the_text": "as §1, §2, §3, §4, §5"}, "[19]": {"test_system": "johnsongrass (Sorghum halepense, SORHA)", "experiment": "Greenhouse herbicide screen, post-emerge application, phytotoxicity rating", "details": "POST emergent, 63 g ai/ha, 14 days after application, scale 0-100", "from_the_text": "as §1, §2, §3, §4, §5"}, "[20]": {"test_system": "large crabgrass (Digitaria sanguinalis, DIGSA)", "experiment": "Greenhouse herbicide screen, post-emerge application, phytotoxicity rating", "details": "POST emergent, 63 g ai/ha, 14 days after application, scale 0-100", "from_the_text": "as §1, §2, §3, §4, §5"}, "[21]": {"test_system": "sicklepod (Cassia obtusifolia, CASOB)", "experiment": "Greenhouse herbicide screen, post-emerge application, phytotoxicity rating", "details": "POST emergent, 63 g ai/ha, 14 days after application, scale 0-100", "from_the_text": "as §1, §2, §3, §4, §5"}, "[22]": {"test_system": "cocklebur (Xanthium strumarium, XANST)", "experiment": "Greenhouse herbicide screen, post-emerge application, phytotoxicity rating", "details": "POST emergent, 63 g ai/ha, 14 days after application, scale 0-100", "from_the_text": "as §1, §2, §3, §4, §5"}},
  "data": [
    {"smiles": "CC(=O)OC(=NN=C(C)C(C)(C)C)c1cc(-n2c(=O)cc(C(F)(F)F)n(C)c2=O)c(F)cc1Cl", "note": "[Compound 5-2, 2-chloro-5-(3,6-dihydro-3-methyl-2,6-dioxo-4-(trifluoromethyl)-1(2H)-pyrimidinyl)-4-fluoro-N-(1,2,2-trimethylpropylidene)-benzenecarbohydrazonic Acid, Acetyl Ester]", "values": [
      {"measurement": "phytotoxicity rating ABUTH", "setting": "[1]", "value": 95},
      {"measurement": "phytotoxicity rating ECHCG", "setting": "[2]", "value": 40},
      {"measurement": "phytotoxicity rating CHEAL", "setting": "[3]", "value": 100},
      {"measurement": "phytotoxicity rating AMARE", "setting": "[4]", "value": 100},
      {"measurement": "phytotoxicity rating AMBEL", "setting": "[5]", "value": 60},
      {"measurement": "phytotoxicity rating IPOHE", "setting": "[6]", "value": 95},
      {"measurement": "phytotoxicity rating SETVI", "setting": "[7]", "value": 70},
      {"measurement": "phytotoxicity rating SORHA", "setting": "[8]", "value": 70},
      {"measurement": "phytotoxicity rating DIGSA", "setting": "[9]", "value": 60},
      {"measurement": "phytotoxicity rating CASOB", "setting": "[10]", "value": 55},
      {"measurement": "phytotoxicity rating XANST", "setting": "[11]", "value": 0},
      {"measurement": "phytotoxicity rating ABUTH", "setting": "[12]", "value": 100},
      {"measurement": "phytotoxicity rating ECHCO", "setting": "[13]", "value": 95},
      {"measurement": "phytotoxicity rating CHEAL", "setting": "[14]", "value": 100},
      {"measurement": "phytotoxicity rating AMARE", "setting": "[15]", "value": 95},
      {"measurement": "phytotoxicity rating AMBEL", "setting": "[16]", "value": 90},
      {"measurement": "phytotoxicity rating IPOHE", "setting": "[17]", "value": 100},
      {"measurement": "phytotoxicity rating SETVI", "setting": "[18]", "value": 50},
      {"measurement": "phytotoxicity rating SORHA", "setting": "[19]", "value": 55},
      {"measurement": "phytotoxicity rating DIGSA", "setting": "[20]", "value": 50},
      {"measurement": "phytotoxicity rating CASOB", "setting": "[21]", "value": 55},
      {"measurement": "phytotoxicity rating XANST", "setting": "[22]", "value": 99}
    ]}
  ]
}
